The assay is described as follows: Inhibition of alpha-glucosidase at 0.1 mg/mL relative to 1-deoxynojirimycin.

Calls of active or inactive are those of the source. No cut-off for these calls is given here.

`CC1(C)CCC[C@]2(C)[C@@H](C=O)C(C=O)=CC[C@@H]12`: the inhibition (commonly how much of the control response was suppressed) is 2.1%.
`CC1(C)CCC[C@@]2(C)[C@H]1[C@H](O)C=C1C(=O)OC[C@@]12O`: the inhibition worked out at 7.2%.
Still for that read-out and setting: to `CC(=O)O[C@@H]1C=C(C2O[C@@H]3OC(O)C4=C[C@@H](OC(C)=O)[C@H]5C(C)(C)CCC[C@]5(C)[C@]43O2)[C@](O)(C=O)[C@@]2(C)CCCC(C)(C)[C@H]12` (stereo partly drawn) belongs 83.7%; to `CC(=O)O[C@@H]1[C@@H](O)C2=C(C(=O)OC2)[C@@]2(C)CCCC(C)(C)[C@H]12`, 46.2%; to `CC(=O)O[C@@H]1C=C2C(=O)OC[C@]2(O)[C@@]2(C)CCCC(C)(C)[C@H]12`, 20%.
In the case of `CC(=O)O[C@@H]1[C@@H](Cl)C2=C(COC2=O)[C@@]2(C)CCCC(C)(C)[C@H]12`, the inhibition is 28.1%.
Same read-out and setting: the result for `CC(=O)O[C@@H]1[C@@H](O)C2=C(COC2=O)[C@@]2(C)CCCC(C)(C)[C@H]12` reads 14.9%.
`CO[C@@H]1O[C@@H](OC)[C@@]2(O)C1=C[C@@H](OC(C)=O)[C@H]1C(C)(C)CCC[C@@]12C`: the result was inactive.
